Source: PubChem BioAssay (NCI)
Where “and” joins values, the source holds several entries; their conditions need not be identical. Identical values can stand only once.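 In this assay, cells in 96-well plates receive the compound at five concentrations for 48 hours. Endpoints are linearly interpolated between the surrounding concentrations. At the GI50, growth is halved. TGI denotes the concentration required for complete inhibition of growth.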

How the values were obtained:
Test in all cases: DTP human tumour cell line panel, 48 h
[1] = test system: CCRF-CEM leukemia
[2] = test system: EKVX NSCLC
[3] = test system: OVCAR-4 ovarian
[4] = test system: MDA-MB-231 breast
[5] = test system: DMS 114 small cell lung
[6] = test system: DMS 273 small cell lung
[7] = test system: UACC-62 melanoma
[8] = test system: M19-MEL melanoma
[9] = test system: HL-60(TB) leukemia
[10] = test system: SR leukemia
[11] = test system: XF 498 CNS
[12] = test system: MDA-MB-435
[13] = test system: KM12 colon
[14] = test system: MALME-3M melanoma
[15] = test system: T-47D breast
[16] = test system: UO-31 renal
[17] = test system: COLO 205 colon
[18] = test system: KM20L2 colon
[19] = test system: K-562 leukemia
[20] = test system: HOP-62 NSCLC
[21] = test system: DLD-1 colon
[22] = test system: MCF7 breast
[23] = test system: RPMI-8226 leukemia
[24] = test system: U251 CNS
[25] = test system: SN12C renal
[26] = test system: PC-3 prostate
[27] = test system: TK-10 renal
[28] = test system: HCT-15 colon
[29] = test system: A549 NSCLC
[30] = test system: SK-MEL-28 melanoma
[31] = test system: OVCAR-3 ovarian
[32] = test system: HOP-92 NSCLC
[33] = test system: IGROV1 ovarian
[34] = test system: LOX IMVI melanoma
[35] = test system: 786-0 renal
[36] = test system: HS 578T breast

O=[N+]([O-])c1cccc2nc3ccccc3c(NCCO)c12
TGI [1]: > 100 nM
GI50 [2]: 5.47 nM
TGI [2]: 3.73 nM
TGI [3]: 2.93 nM and 26.7 nM
GI50 [4]: 0.118 nM
TGI [5]: 14.2 nM
TGI [6]: 48.1 nM
GI50 [7]: 0.705 nM
TGI [8]: 8.48 nM
GI50 [9]: 1.18 nM
TGI [9]: > 100 nM
GI50 [10]: 1.39 nM
TGI [10]: 7.31 nM
TGI [11]: 4.37 nM
GI50 [12]: 0.0714 nM
GI50 [13]: 1.1 nM
TGI [13]: 12.9 nM
GI50 [14]: 0.525 nM
TGI [14]: 1.7 nM
TGI [15]: 4.8 nM
GI50 [16]: 0.336 nM
TGI [16]: 5.76 nM and 1.73 nM
GI50 [17]: 0.181 nM
TGI [17]: 6.4 nM and 0.73 nM
TGI [18]: 3.57 nM
GI50 [19]: 1.26 nM
TGI [20]: 2.05 nM
TGI [21]: 3.08 nM
GI50 [22]: 0.113 nM
TGI [22]: 0.471 nM
GI50 [23]: 0.0396 nM
GI50 [24]: 0.4 nM
TGI [24]: 5.18 nM
GI50 [25]: 0.299 nM
TGI [25]: 2.32 nM
GI50 [26]: 0.136 nM
TGI [26]: 0.414 nM
GI50 [27]: 0.594 nM
TGI [27]: 9.35 nM and 2.74 nM
GI50 [28]: 0.293 nM
TGI [28]: 4.25 nM
GI50 [29]: 0.154 nM
TGI [29]: 1.46 nM
GI50 [30]: 0.707 nM
GI50 [31]: 2.87 nM
TGI [31]: 1.78 nM
GI50 [32]: 1.22 nM
TGI [32]: 4.61 nM and 5.48 nM
GI50 [33]: 11.8 nM
TGI [33]: 13.9 nM and 72.4 nM
TGI [34]: 11.9 nM and 16.9 nM
GI50 [35]: 0.265 nM
TGI [35]: 2.1 nM
GI50 [36]: 0.298 nM
TGI [36]: 0.802 nM
